The source of these data is patent US20230061417A1, “THIENOPYRIMIDINE DERIVATIVES AS LPA RECEPTOR 2 INHIBITORS” (CHIESI FARMACEUTICI S.P.A., priority 2019, published 2023).

The structures appear in SMILES notation. Where two headings read alike, the source gives them in different places.

Broadly, the IC50 is the concentration that inhibits the measured activity by half.

The assay deals with T1, human recombinant LPA2 (Homo sapiens, UniProt Q9HBW0).
T1 construct: expressed in transfected cells; host or cells: CHO (CHO-hLPA2 cell line)
The experiment in a line: FLIPR calcium mobilization assay, LPA2 antagonism in CHO-hLPA2 cells. Format: cell-based. As for the experimental part: The effectiveness of compounds of the present invention as LPA2 antagonist can be determined at the human recombinant LPA2 expressed in CHO cells, using a FLIPR assay in 384 well format.
CHO-hLPA2 cell lines are cultured in a humidified incubator at 5% CO2 in DMEM/F-12 (1:1) MIXTURE with 2 mM Glutamax, supplemented with 10% of Foetal Bovine Serum, 1 mM Sodium Pyruvate, 11 mM Hepes and 1× Penicillin/Streptomycin. CHO hLPA2 cells are seeded into black walled clear-bottom 384-well plates (#781091, Greiner Bio-One GmbH) at a density of 7,500 cells per well in 50 μl culture media and grown overnight in a 37° C. humidified CO2-incubator. Serial dilutions (1:3 or 1:4, 11 points CRC) of compounds are performed in 100% DMSO at 200× the final concentration. The compounds are diluted 1:50 prior to the experiment with Assay Buffer (20 mM HEPES, 145 mM NaCl, 5 mM KCl, 5.5 mM glucose, 1 mM MgCl2 and 2 mM CaCl2, pH 7.4 containing 0.01% Pluronic F-127) to obtain a solution corresponding to […] the final concentration in the assay (4×, 2% DMSO). The final concentration of DMSO in the assay will be 0.5% in each well. Medium is removed by aspiration and cells are then incubated with 30 μl of a loading solution containing 5 μM of the cytoplasmic Ca2+ indicator Cal-520 AM in Assay Buffer containing 2.5 mM probenecid for 30 min at 37° C. incubator (cell loading). The loaded cell plates are transferred into the FLIPR instrument and calcium responses are monitored during the on-line addition protocols. For testing of compounds, after the cell loading, 10 μl/well of 4× antagonists' solution was added onto the cells. After 30 min pre-incubation (at 37° C.), 10 μl/well of 5× concentrated LPA EC80 was added and Ca2+ mobilization responses was followed during the on-line addition protocol. Intracellular peak fluorescence values subtracted by baseline fluorescence are exported and analysed to determine IC50 values, respectively. The calcium response is expressed as percentage of the maximal inhibition of the EC80 agonist response.
The raw data (peak height expressed as relative fluorescence units) are normalized and transformed into “percent of inhibition”. Curve fitting and pIC50 (−Log IC50) estimations are carried out using a four-parameter logistic model using XLfit Software.
In general terms: A change in cytosolic calcium serves as a functional read-out for many receptors and channels.

[1] abbreviates: human recombinant LPA2 in CHO cells, LPA EC80 stimulation, 30 min pre-incubation, read-out: LPA2 IC50.

T1 sequence (Q9HBW0 whole entry): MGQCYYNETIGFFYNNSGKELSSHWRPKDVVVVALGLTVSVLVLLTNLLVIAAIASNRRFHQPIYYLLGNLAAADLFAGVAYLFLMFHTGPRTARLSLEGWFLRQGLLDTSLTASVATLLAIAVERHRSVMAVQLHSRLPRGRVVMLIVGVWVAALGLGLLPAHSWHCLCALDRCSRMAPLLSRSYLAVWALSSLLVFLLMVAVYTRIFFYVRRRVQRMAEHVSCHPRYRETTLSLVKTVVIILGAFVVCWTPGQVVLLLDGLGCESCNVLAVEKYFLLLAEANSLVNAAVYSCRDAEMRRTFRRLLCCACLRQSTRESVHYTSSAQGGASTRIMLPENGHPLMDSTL

In the case of `Cc1csc2c(N[C@@H](C)CN3CCN(S(=O)(=O)c4ccc(-c5ccccn5)s4)CC3)ncnc12` [Example 30, 7-methyl-N-[(2S)-1-(4-{[5-(pyridin-2-yl)thiophen-2-yl]sulfonyl}piperazin-1-yl)propan-2-yl]thieno[3,2-d]pyrimidin-4-amine], the IC50 under setting [1] was under 1000 nM.

Take `CC(=O)N1CCc2cc(S(=O)(=O)N3CCN(C[C@H](C)Nc4ncnc5c(C)csc45)CC3)ccc21` [Example 24, 1-[5-({4-[(2S)-2-({7-methylthieno[3,2-d]pyrimidin-4-yl}amino)propyl]piperazin-1-yl}sulfonyl)-2,3-dihydro-1H-indol-1-yl]ethan-1-one]: the half-maximal inhibitory concentration (IC50) under setting [1] was under 1000 nM.

Consider `CCC(=O)Nc1nc(C)c(S(=O)(=O)N2CCN(C[C@H](C)Nc3ncnc4c(C)csc34)CC2)s1` [Example 19, N-[4-methyl-5-({4-[(2S)-2-({7-methylthieno[3,2-d]pyrimidin-4-yl}amino)propyl]piperazin-1-yl}sulfonyl)-1,3-thiazol-2-yl]propanamide], for which, under setting [1], the IC50 was under 1000 nM.

For `COC(=O)Nc1nc(C)c(S(=O)(=O)N2CCN(C[C@H](C)Nc3ncnc4c(-c5cccnc5)cn(C)c34)CC2)s1` [comparative Example A, Methyl (S)-(4-methyl-5-((4-(2-((5-methyl-7-(pyridin-3-yl)-5H-pyrrolo[3,2-d]pyrimidin-4-yl)amino)propyl)piperazin-1-yl)sulfonyl)thiazol-2-yl)carbamate, reference compound], the IC50 (same in vitro assay as Table 2, read-out: IC50 on LPA2 receptor) was over 2000 nM.

Regarding `CC(=O)Nc1nc(C)c(S(=O)(=O)N2CCN(C[C@H](C)Nc3nc(C4CC4)nc4c(C)csc34)CC2)s1` [Example 35, N-[5-({4-[(2S)-2-({2-cyclopropyl-7-methylthieno[3,2-d]pyrimidin-4-yl}amino)propyl]piperazin-1-yl}sulfonyl)-4-methyl-1,3-thiazol-2-yl]acetamide], the IC50 under setting [1] lay in the range of 10 to 100 nM.

In the case of `COC(=O)Nc1nc(C)c(S(=O)(=O)N2CCN(C[C@H](C)Nc3nc(C4CC4)nc4c(C)csc34)CC2)s1` [Example 31, methyl N-[5-({4-[(2S)-2-({2-cyclopropyl-7-methylthieno[3,2-d]pyrimidin-4-yl}amino)propyl]piperazin-1-yl}sulfonyl)-4-methyl-1,3-thiazol-2-yl]carbamate], the IC50 under setting [1] was in the range of 10 to 100 nM.

Take `Cc1csc2c(N[C@@H](C)CN3CCN(S(=O)(=O)c4ccc(F)c(Cl)c4)CC3)ncnc12` [Example 9, N-[(2S)-1-[4-(3-chloro-4-fluorobenzenesulfonyl)piperazin-1-yl]propan-2-yl]-7-methylthieno[3,2-d]pyrimidin-4-amine]: under setting [1], the IC50 is under 1000 nM.

Take `Cc1nc(-c2ccc(S(=O)(=O)N3CCN(C[C@H](C)Nc4ncnc5c(C)csc45)CC3)cc2)cs1` [Example 5, 7-methyl-N-[(2S)-1-{4-[4-(2-methyl-1,3-thiazol-4-yl)benzenesulfonyl]piperazin-1-yl}propan-2-yl]thieno[3,2-d]pyrimidin-4-amine]: the IC50 under setting [1] is under 1000 nM.

With `Cc1nc(NC=O)sc1S(=O)(=O)N1CCN(C[C@H](C)Nc2ncnc3c(C)csc23)CC1` [Example 26, N-[4-methyl-5-({4-[(2S)-2-({7-methylthieno[3,2-d]pyrimidin-4-yl}amino)propyl]piperazin-1-yl}sulfonyl)-1,3-thiazol-2-yl]formamide], the IC50 under setting [1] is under 1000 nM.

With `Cc1csc2c(N[C@@H](C)CN3CCN(S(=O)(=O)c4ccc(-c5ccno5)s4)CC3)ncnc12` [Example 21, 7-methyl-N-[(2S)-1-(4-{[5-(1,2-oxazol-5-yl)thiophen-2-yl]sulfonyl}piperazin-1-yl)propan-2-yl]thieno[3,2-d]pyrimidin-4-amine], the IC50 under setting [1] is under 1000 nM.

`Cc1csc2c(N[C@@H](C)CN3CCN(S(=O)(=O)c4cnc(-c5ccccc5)nc4)CC3)ncnc12` [Example 15, 7-methyl-N-[(2S)-1-{4-[(2-phenylpyrimidin-5-yl)sulfonyl]piperazin-1-yl}propan-2-yl]thieno[3,2-d]pyrimidin-4-amine]: under setting [1], the 50% inhibitory concentration (IC50) was under 1000 nM.
